# Data taken from article PMC5094189 (Journal of the American Chemical Society, 2016).
# Legend:
# [1] = test system: U937 human histiocytic lymphoma cells; details: cited from earlier work
# [2] = test system: U937 human histiocytic lymphoma cells; details: cited from earlier work; remark: listed apart in the source
# Toledo cells = experiment: Toledo cell growth assay; assay type: cell-based
# [3] = test system: TNFα secretion from U937 cells; experiment: TNFα secretion from U937 cells; assay type: cell-based, human; details: treatment for 60 hours
Structure (SMILES),behavior in U937 promyelocytic leukemia cells [1],effect on attachment of U937 cells [2],growth inhibition of Toledo cells (Toledo cells),effect on proliferation of U937 cells [1],TNFα secretion [3]
COC(=O)/C=C1\C[C@H]2C[C@]3(O)O[C@H](C[C@@H](O)CC(=O)O[C@@H](C)[C@H](O)C[C@@H]4C[C@@H]5CC(=O)O[C@]5(O4)C(=O)C(C)(C)/C=C/[C@@H](C1)O2)C[C@H](OC(=O)C(C)(C)C)C3(C)C [Neristatin 1],bryostatin 1-like behavior,,,,
"CCCCCCCCCCCCCC(=O)O[C@@H]1[C@@H](C)[C@@]2(O)[C@@H](C=C(CO)C[C@]3(O)C(=O)C(C)=C[C@@H]23)[C@@H]2C(C)(C)[C@]12OC(C)=O [PMA, phorbol 12-myristate 13-acetate]",,promotes attachment,induce antiproliferative responses,inhibits the proliferation,induces secretion in a dose-dependent manner
CCC/C=C/C=C/C(=O)O[C@H]1/C(=C/C(=O)OC)C[C@H]2C[C@H]([C@@H](C)O)OC(=O)C[C@H](O)C[C@@H]3C[C@H](OC(C)=O)C(C)(C)[C@](O)(C[C@@H]4C/C(=C/C(=O)OC)C[C@H](/C=C/C(C)(C)[C@]1(O)O2)O4)O3 [bryostatin 1],,little response,induce antiproliferative responses,little response,little effect
